The values that follow come from patent publication US7326710B2, “Aralkyl formyl-alkyl piperazine derivatives and their uses as a cerebral nerve protective agent” (Shanghai Institute of Pharmaceutical Industry, priority 2002, dated 2008).

Like-named read-outs stand apart in the source and are kept apart here.

For orientation: ED50 means the midpoint of the dose-response relation.

One series deals with NMDA receptor. Description: Maximum contraction of isolated guinea pig longitudinal ileum muscle preparations induced by L-Glu. The note with it: for antagonism % (restrain rate of contraction of preparations): compound 10^−5M, contraction induced by L-Glu; for excitation: concentration, direct excitation of the preparation; for Glu-like excited action: excite preparations directly and induce contraction. The text has this:
According to the literature (Luzzi, Br J Pharmacol, 95:1271, 1988), maximum contraction of isolated longitudinal ileomuscle preparations of guinea pig induced by L-Glu, were used to examine the activities of the compounds on the NMDA receptor.

For series [1], the system named is anoxia induced by sodium nitrite in mice. Description: Anti-cerebral anoxia in mice, anoxia induced by sodium nitrite. The series is classed as in vivo. The note with it: sodium nitrite 225 mg/kg ip, compound 20 mg/kg sc; for ILS at 20 mg/kg: Mus musculus, sc. The protocol:
The rates of the prolongation of 9 compounds (IV-2, 10, 23, 32, 34, 36, 39, 40, 41) were more than 50%, which indicated the effect of anti-cerebral anoxia. IV-23 and IV-2 prolonged the survival duration by 100% of the animals, showing remarkably protective action for cerebral anoxia. (Table 3)
One model was established to test the time needed for mice to die because of anoxia caused by sodium nitrite (225 mg/kg, ip). IV-23 (20 mg/kg, sc) can prolong the time for 100%, indicating significant anti-cerebral anoxic anoxia activity.

The subject of series [2] is focal cerebral ischemia in rats. Description: Focal cerebral ischemia in rats by occlusion of middle cerebral artery (MCA). The note with it: 20 mg/kg p.o.; for Neurological deficit 24 h: 24 h after operation. The series is classed as in vivo. The protocol: The focal ischemia rat model by occlusion of middle cerebral artery (MCA) was used to determine the protective effects of the compounds on focal cerebral ischemia. The infarct size after focal cerebral ischemia and the weight percentage of cerebral hemisphere were calculated to evaluate the compounds' effects on focal cerebral ischemia.

Series [3] concerns global cerebral ischemia in rats. In words: Global cerebral ischemia in rats, bilateral common carotid artery occlusion with exsanguine hypotension. To be noted: 20 mg/kg orally for 3 days, reperfusion after 10 min occlusion. It counts as in vivo. From the text:
The animal models of the bilateral common carotid artery occlusion with exsanguine hypotension in the rats were used to investigate the effect against global cerebral ischemia.
Methods: The animals were administrated four compounds (IV-2, 23, 34, 36) orally for 3 days before the experiment. […]

A further series concerns cerebral anoxia in mice. Description: Anoxic anoxia experiment in mice (closed wide-mouth bottles with soda lime). It counts as in vivo, Male Kunming mice. The protocol:
Methods: Male Kunming mice were divided into 8 groups, 12 mice for each group. One group is injected subcutaneously with saline ([…], sc), other groups with ACEA1021 (NMDA receptor antagonist under clinical trial) or IV-23. 30 minutes after administration, the animals were put separately into wide-mouth bottles with soda lime, which more quickly closed. The survival time for each mice was recorded, and the group average of survival time was calculated and compared with the saline group.

The test system of series [4] is focal cerebral ischemia in rats. Description: Temporary occlusion of the right MCA in rats caused by suture. The series is classed as in vivo. To be noted: rats; 10 mg/kg; length of ischemia 6 hr. From the text:
b. Temporary occlusion of the right MCA in rats caused by suture.

Series [5] shares this test system. Description: Focal brain injury, occlusion of MCA induced by photochemical reaction. The series is classed as in vivo. To be noted: rats, 2 mg/kg. The protocol: a. Focal brain injury caused by photochemical induction of occlusion of the artery:
The percentage of infarction was lowered by 52% at 24 hours after operation.

For series [6], the system named is primary culture of rat cerebral cortical neuronal cells. In words: Effect of NMDA on neurons, LDH activity in supernatant. The series is classed as cell-based. The note with it: n = 12. From the text:
Primary culture of rat cerebral cortical neuronal cells were used. […] This is further evidence that IV-23 is a new NMDA receptor antagonist, and has anti-cerebral ischemic injury functions as well.

Setting [7] is: mice, read-out: Prolonging the survival duration (%).
[8] abbreviates: read-out: Prolonging the survival duration (%), mice.

In the case of `O=C(CN1CCN(CC(=O)c2ccc3ccccc3c2)CC1)c1ccccc1` [IV-7, N^1-(2-naphthoylmethyl)-N^4-phenacyl-piperazine], in the series with NMDA receptor, the “antagonism % (restrain rate of contraction of preparations)” value is 25%. Further, in series [1] (setting [7]), the ILS at 20 mg/kg is 21%.
In the case of `COc1ccc2cc(C(=O)C(C)N3CCN(CC(=O)c4ccccc4)CC3)ccc2c1Cl` (stereo not shown) [IV-20, N^1-phenacyl-N^4-[1-(5-chloro-6-methoxy-2-naphthoyl)ethyl]piperazine], in series [2], the “Infarct volume” value stood at 0.14 ± 0.04 g, the “Neurological deficit After operation” value was determined as 9.5 ± 0.6, the “Percentage of infarct volume (%)” value came out at 18.80 ± 5.61 % and the “Neurological deficit 24 h” value is recorded as 8.8 ± 1.3.
Take `CC(C(O)c1ccc(O)cc1)N1CCC(Cc2ccccc2)CC1` (stereo not shown) [Ifenprodil, reference compound]: in the series with NMDA receptor, the “antagonism % (restrain rate of contraction of preparations)” value was 41%(10^−5).
With `COc1ccc(C(=O)CN2CCN(CC(=O)c3ccccc3)CC2)cc1` [IV-9, N^1-phenacyl-N^4-(4-methoxyphenacyl) piperazine], the excitation in the series on NMDA receptor (unit not given) is 10^−5. Besides, in the series on NMDA receptor, the Glu-like excited action result was “could excite preparations directly”. In series [1] (setting [7]), the ILS at 20 mg/kg came to 30%.
With `O=C(CN1CCN(CC(=O)c2ccc(Cl)cc2)CC1)c1ccccc1` [IV-5, N^1-phenacyl-N^4-(4-chlorophenacyl) piperazine], the “antagonism % (restrain rate of contraction of preparations)” value in the series with NMDA receptor is 30%. The ILS at 20 mg/kg in series [1] (setting [7]) came out at 22%.
For the compound `O=C(CN1CCN(CC=Cc2ccccc2)CC1)NCc1ccccc1` [IV-21, N1-[2-(benzylamino)-2-oxo-ethyl]-N^4-cinnamyl piperazine], the ILS at 20 mg/kg in series [1] (setting [7]) amounted to 33%. For the same compound, in series [2], the “Infarct volume” value turned out to be 0.12 ± 0.07 g, the “Neurological deficit After operation” value is recorded as 9.8 ± 0.5, the “Percentage of infarct volume (%)” value was 15.53 ± 8.27 % and the “Neurological deficit 24 h” value is 6.8 ± 2.5.
Consider `N[C@@H](CCC(=O)O)C(=O)O` [L-Glu, reference compound], for which the excitation in the series with NMDA receptor (unit not given) is 3.89 × 10^−5.
Turning to `O=C(CN1CCN(C(=O)c2ccc([N+](=O)[O-])cc2)CC1)c1ccccc1` [IV-3, N^1-(4-nitrobenzoyl)-N^4-phenacyl-piperazine], the “antagonism % (restrain rate of contraction of preparations)” value with NMDA receptor stood at 37%. For the same compound, in series [1] (setting [7]), the ILS at 20 mg/kg came to 7%.
As for `COc1ccc2cc(C(=O)C(C)N3CCN(CC(=O)NCc4ccccc4)CC3)ccc2c1Cl` (stereo not shown) [IV-33, N^1-[1-(5-chloro-6-methoxy-2-naphthoyl)ethyl]-N^4-[2-(benzylamino)-2-oxo-ethyl] piperazine], in series [2], the “Infarct volume” value was 0.12 ± 0.04 g, the “Neurological deficit After operation” value amounted to 9.6 ± 0.6 and the “Neurological deficit 24 h” value is reported as 8.4 ± 1.5.
`O=C(CN1CCN(S(=O)(=O)Cc2ccc(F)cc2F)CC1)c1ccccc1` [IV-22, N^1-phenacyl-N^4-(2,4-difluorobenzylsulfonyl) piperazine]: in series [1] (setting [7]), the ILS at 20 mg/kg is 26%. In series [2], the “Infarct volume” value came out at 0.10 ± 0.02 g, the “Neurological deficit After operation” value was determined as 9.6 ± 0.9 and the “Neurological deficit 24 h” value is 7.4 ± 2.4.
With `CC(C(=O)c1ccccc1)N1CCN(CC(=O)c2ccccc2)CC1` (stereo not shown) [IV-8, N^1-(1-benzoylethyl)-N^4-phenacyl-piperazine], the “antagonism % (restrain rate of contraction of preparations)” value in the series on NMDA receptor is 25%. In addition, the “Prolonging the survival duration (%)” value in series [1] (mice) is reported as 21%.
As to `CC(C(=O)c1ccccc1)N1CCN(C(C)C(=O)c2ccccc2)CC1` (stereo not shown) [IV-10, N^1,N^4-di (1-benzoylethyl) piperazine], the excitation in the series on NMDA receptor (unit not given) was 10^−5. The Glu-like excited action result with NMDA receptor is listed as “could excite preparations directly”. For the same compound, in series [1] (setting [8]), the ILS at 20 mg/kg was above 50%.
As for `O=C(CN1CCN(CC(=O)c2ccccc2)CC1)c1ccccc1` [IV-2, N^1,N^4-diphenacyl-piperazine], the “antagonism % (restrain rate of contraction of preparations)” value in the series with NMDA receptor was 25%.
For the compound `O=C(CN1CCN(CC(=O)c2ccc([N+](=O)[O-])cc2)CC1)c1ccccc1` [IV-11, N^1-phenacyl-N^4-(4-nitrophenacyl) piperazine], the excitation in the series on NMDA receptor (unit not given) is on record as 10^−5. In addition, the Glu-like excited action entry in the series on NMDA receptor is “could excite preparations directly”. Moreover, the ILS at 20 mg/kg in series [1] (setting [7]) was found to be 2%.
With `O=C(c1ccc([N+](=O)[O-])cc1)N1CCN(CC(O)c2ccccc2)CC1` (stereo not shown) [IV-35, N^1-(4-nitrobenzoyl)-N^4-(2-phenylethyl-2-ol) piperazine], the excitation with NMDA receptor (unit not given) was 3 × 10^−5. Also, the Glu-like excited action result in the series on NMDA receptor is “could excite preparations directly”. Moreover, the “Prolonging the survival duration (%)” value in series [1] (mice) amounted to 42%.
With `O=C(c1ccccc1)N1CCN(CC(O)c2ccccc2)CC1` (stereo not shown) [IV-34, N^1-benzoyl-N^4-(2-phenylethyl-2-ol) piperazine], the “antagonism % (restrain rate of contraction of preparations)” value in the series with NMDA receptor stood at 25%.
For the compound `O=C(CN1CCN(CC(O)c2ccccc2)CC1)c1ccccc1` (stereo not shown) [IV-36, N^1-phenacyl-N^4-(2-phenylethyl-2-ol) piperazine], the “Recovery time of EEG” value in series [3] came to 20.10 min.
Take `O=C(CN1CCN(C(=O)c2ccccc2)CC1)c1ccccc1` [IV-1, N^1-benzoyl-N^4-phenacyl-piperazine]: the excitation in the series with NMDA receptor (unit not given) is reported as 3 × 10^−6. For the same compound, the Glu-like excited action result in the series on NMDA receptor is on record as “could excite preparations directly”. Moreover, the ILS at 20 mg/kg in series [1] (setting [7]) was determined as 3%.
As for `O=c1[nH]c2cc(Cl)c(Cl)c([N+](=O)[O-])c2[nH]c1=O` [ACEA-1021, reference compound], the “Average survival time (min)(means ± S.E.M.)” value was determined as 17.33 ± 1.18 min with cerebral anoxia in mice (2.5 mg/kg sc), 18.20 ± 0.82 min in the series on cerebral anoxia in mice (5 mg/kg sc), 19.47 ± 1.17 min in the series on cerebral anoxia in mice (10 mg/kg sc) and 20.04 ± 1.38 min in the series on cerebral anoxia in mice (20 mg/kg sc). In the series with cerebral anoxia in mice (Mus musculus, sc, survival time in anoxic anoxia), this compound came in with an ED50 of 29.2 mg/kg. The “Percent of volume (Means ± SEM)” value in series [4] stood at 12.73 ± 1.24%. In addition, the “Necrotic percent (%)” value in series [5] was found to be 17 ± 2 %. In addition, the “Score of praxiology After operation” value in series [5] was determined as 9.5 ± 0.5. The “Weight of necrotic area” value in series [5] came to 0.12 ± 0.02 g. Further, the “Score of praxiology 24 h” value in series [5] (24 h) stood at 7.1 ± 1.9.
`CN[C@H](CC(=O)O)C(=O)O` [NMDA, N-methyl-D-aspartate]: the “LDH activities (U/g protein) (mean ± SEM)” value is 1.51 ± 0.25 U/g protein in series [6] (NMDA 0.1 mmol/L), 1.63 ± 0.19 U/g protein in series [6] (NMDA 0.5 mmol/L), 1.74 ± 0.17 U/g protein in series [6] (NMDA 1 mmol/L) and 2.38 ± 0.31 U/g protein in series [6] (NMDA 2 mmol/L).
On to `N#Cc1ccccc1-c1ccc(CS(=O)(=O)N2CCN(CC(=O)NCc3ccccc3)CC2)cc1` [IV-61, N^1-[2-(benzylamino)-2-oxo-ethyl]-N^4-[4-(2-cyanophenyl)benzylsulfonyl] piperazine], for which the ILS at 20 mg/kg in series [1] (setting [7]) was 22%.
In the case of `O=C(CN1CCN(S(=O)(=O)Cc2ccccc2CS(=O)(=O)c2ccccc2)CC1)NCc1ccccc1` [IV-62, N^1-[2-(benzylamino)-2-oxo-ethyl]-N^4-[2-(benzenesulfonylmethyl)benzylsulfonyl] piperazine], the ILS at 20 mg/kg in series [1] (setting [7]) was 36%.
In the case of `O=C(CN1CCN(CC(=O)c2ccc(Cl)cc2)CC1)c1ccc(Cl)cc1` [IV-6, N^1,N^4-di (4-chlorophenacyl) piperazine], the “antagonism % (restrain rate of contraction of preparations)” value in the series on NMDA receptor is recorded as 25%. The ILS at 20 mg/kg in series [1] (setting [7]) was 4%.
With `CNC1(c2ccccc2Cl)CCCCC1=O` (stereo not shown) [Ket, Ketamine, reference compound], the “antagonism (value printed as a concentration in the antagonism % column)” value in the series on NMDA receptor (positive control, unit not given) is recorded as 5.61 × 10^−7.
Regarding `CC(C(=O)c1ccccc1)N1CCN(C(=O)Cc2ccccc2O)CC1` (stereo not shown) [IV-18, N^1-(1-benzoylethyl)-N^4-[(2-hydroxy)phenylacetyl] piperazine], the ILS at 20 mg/kg in series [1] (setting [8]) came to 25%.
